Test system: mutated ecdysone receptor-based gene switch
Assay: In vivo SEAP induction, ligand by IP injection
Design: species or system C57BL/6 mouse
Details: mouse serum
Outline: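 Gene switch plasmids (receptor under CMV promoter) electroporated into quadriceps of C57BL/6 mice; 3 days later ligand given IP at 2.6 μmol or 26 nmol in 50 μL DMSO per mouse. Serum SEAP measured by chemiluminescence 2-11 days after dosing, averaged over four animals, expressed as % of GS™-E ligand induction.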

CCc1ccc(C(=O)NN(C(=O)c2cc(C)cc(C)c2)C(C)C(C)(C)C)cc1 (stereo not drawn) [RG-103451]
Secreted Alkaline Phosphatase (percentage of GS ™-E ligand induction) Day 2 (IP 2.6 μmol ligand 3 days after electroporation, day 2 after ligand): 76 percentage of GS ™-E ligand induction
Secreted Alkaline Phosphatase (percentage of GS ™-E ligand induction) Day 3 (IP 2.6 μmol ligand, day 3 after ligand): 73 percentage of GS ™-E ligand induction
Secreted Alkaline Phosphatase (percentage of GS ™-E ligand induction) Day 11 (IP 2.6 μmol ligand, day 11 after ligand): 371 percentage of GS ™-E ligand induction

Reference: patent US9102648B1, “Bioavailable diacylhydrazine ligands for modulating the expression of exogenous genes via an ecdysone receptor complex” (Intrexon Corporation, priority 2003, dated 2015)
